Reference: patent publication US11976280B2, “SMAC/Diablo inhibitors useful for treating cancer” (THE NATIONAL INSTITUTE FOR BIOTECHNOLOGY IN THE NEGEV LTD., priority 2017, dated 2024)
d = 2'-deoxy (DNA); r = 2'-OH (RNA)

Columns and labels:
[1] = tested on: A549 cells-derived tumors; assay: Transmission electron microscopy of tumor ultrastructure; type: in vivo, mice
Text: In si-NT-TTs, a massive amount of intracellular vesicles of different sizes and densities, such as lysosomes and large vesicles containing surfactant-accumulating lamellar bodies were seen. Such vesicles were not observed in the tumors where hSMAC/Diablo was silenced (si-hSMAC-A-TTs) (FIG. 10D, 12A).
This may be associated with cell differentiation processes. […] The large nuclei in si-NT-TTs could result from membrane fluidity and/or osmolality changes, as reflected in the modified expression of transporters (FIG. 11A, Table 4). Changes in the expression of genes associated with cell membrane, exosomes, and ER- and Golgi-related proteins (FIG. 11A, 11B) and in cell ultrastructure (FIG. 10D, 10E), are summarized in a schematic model (FIG. 12C).

A549 cells xenograft = assay: Sub-cutaneous A549 lung cancer xenograft in nude mice, intratumoral siRNA; type: in vivo; details: for decrease in tumor size at the end point: every 3 days; for decrease in tumor weight: 39 days post-cell inoculation
Description: Five-week-old male athymic Swiss nude mice (weight ˜19-22 g) were obtained from Envigo and allowed a week of acclimatization to their new surroundings. Lung cancer cells A549 (3×10^6), or breast cancer cells MDA-MB231 (3×10^6) were injected subcutaneous (s.c.) into the hind leg flanks of the mice. Approval for the experimental protocol was obtained from the Institutional Animal Care and Use Committee of the Soroka University Medical Center. Eleven days after inoculation, the developing tumors were measured in two dimensions with a digital caliper and tumor volume was calculated as follows: volume=X^2×Y/2, where X and Y are the short and long tumor dimensions, respectively. Mice with xenografts reaching a volume of 65-100 mm^3 were randomized to receive either non-targeting (NT) siRNA or siRNA targeted to human hSMAC (si-hSMAC); 5 animals in each group. Tumors and section thereof that received NT siRNA are designated si-NT-TTs (siRNA non-targeting treated tumors) and tumors and section thereof that received hSMAC siRNA are designated si-hSMAC-TTs (siRNA hSMAC treated tumors). Treatment substances were injected into the established s.c. tumors using the jetPEI delivery reagent (10 μg siRNA/20 μl jetPEI). The tumors were injected (at a volume equal to 10 to 20% of the tumor volume) with si-NT or the appropriate si-hSMAC every three days. Beginning on the day of inoculation, mouse weight and tumor volume were monitored twice a week using a digital caliper. At the end of the experiment, i.e. when tumor volume reached approximately 1300 mm^3, the mice were sacrificed using CO2 gas, the tumors were excised and ex vivo weight was determined. Half of each tumor was fixed in 4% buffered formaldehyde, paraffin-embedded and processed for histological examination, while the second half was frozen in liquid nitrogen and stored in −80° C. for immunoblot analysis.
(§1) Tissue microarrays (MC5003, LC807) containing cancer and normal tissues purchased from US Biomax (US Biomax, Inc. USA) and formalin-fixed and paraffin-embedded tumor sections were immunohistochemistry (IHC) stained. Sections were deparaffinized using xylene and a graded ethanol series. Endogenous peroxidase activity was blocked by incubating the sections in 3% H2O2 for 10 minutes. Antigen retrieval was performed in 0.01M citrate buffer (pH 6.0) in 95° C.-98° C. for 20 minutes. After washing sections with PBS containing 0.1% Triton-X100 (pH 7.4), non-specific antibody binding was reduced by incubating the sections in 10% normal goat serum for 2 hr. After decanting excess serum, sections were incubated overnight at 4° C. with primary antibodies (sources and dilutions are detailed in Supplementary Table 1). Sections were washed with PBST. For IHC, endogenous peroxidase activity was blocked by incubating the sections in 3% H2O2 for […]. After washing thoroughly with PBST, the sections were incubated for 2 h with anti-mouse or anti rabbit (1:250) secondary antibodies conjugated to HRP, as appropriate. Sections were washed five times in PBST and the peroxidase reaction was subsequently visualized by incubating with 3,3-diaminobenzidine (DAB) (ImmPact-DAB, Burlingame, CA). After rinsing in water, the sections were counterstained with hematoxylin, and mounted with Vectashield mounting medium (Vector Laboratories, Burigame, CA). Finally, the sections were observed under a microscope (Leica DM2500) and images were collected at 20× magnification with the same light intensity and exposure time.
The effect of si-hSMAC-A was tested on a sub-cutaneous (s.c) tumor xenograft of A549 cells established in nude mice (FIG. 4). Following tumor formation (75-90 mm^3), the mice were divided into three matched groups, and injected every 3 days with either si-NT (group 1) or si-hSMAC-A at 350 nM (group 2) or 700 nM (group 3). Tumor growth was followed for 39 days (FIG. 4A).
All mice were sacrificed 39 days post-cell inoculation, and the tumors were excised (FIG. 4B) and weighed (FIG. 4C). […]

[2] = tested on: A549 lung cancer xenografts; assay: Histology and IHC of residual tumor morphology (H&E, SP-C, podoplanin, CD31, α-SMA); type: in vivo, mice
Description: as §1
These features can be interpreted as indicative of the cancer cells in si-hSMAC-A-TTs having undergone a differentiation process. To investigate this point, we analyzed the expression of the pulmonary-associated surfactant protein c (SP-C) ([…]), a component of the surface-active lipoprotein complex that is required for proper biophysical function of the lung, and found in alveolar epithelial type II (AT2) cells (Barkauskas, C. E. et al., 2013. J Clin Invest 123, 3025-3036). […] The expression of the AT1 cells marker podoplanin (also known as T1α, PDPN), a membranal mucin-type sialoglycoprotein (Barkauskas et al., ibid), was also assessed (FIG. 4D, 4E). […] (FIG. 4F) Photomicrograph of si-hSMAC-A-treated tumor stained with toluidine blue. Arrows indicate glandular-like clusters surrounded by a chain of cells.
In contrast, in si-NT-TTs, the CD31-positive cells were flattened and randomly dispersed over the entire area of the tumor tissue (FIG. 7G). The results of the histological analysis could reflect a scenario whereby si-NT-TTs CD31-positive cells are involved in the process of tumor angiogenesis, while in si-hSMAC-A-TTs, the cellular organization more closely resembles the normal physiological alveolar endothelial arrangement designed for 02 exchange. A schematic presentation of a cross-section through alveoli is offered for comparison with the glandular/alveolar-like structures observed in the si-hSMAC-A-TTs (compare FIGS. 7H and 7I).
Further support for this view comes from analysis of the formation of stroma in H&E-stained si-NT-TTs and si-hSMAC-A-TTs (FIG. 8).
The sub-cellular localization of SMAC/Diablo in si-NT-TTs was further analyzed by immunofluorescence staining using anti-Cyto c antibodies as mitochondria markers and confocal microscopy (data not shown). It was found SMAC/Diablo and Cyto c were co-localized in si-NT-TTs. Here too, SMAC/Diablo was found in addition to mitochondria also in the nuclei.

## si-hSMAC-A: siRNA to human SMAC/Diablo; sense 5′AAGCGGUGUUUCUCAGAAUUGtt3′ (SEQ ID NO:20), antisense 5′AACAAUUCUGAGAAACCCGCtt3′ (SEQ ID NO:21) (sense AAGCGGUGUUUCUCAGAAUUGTT; antisense AACAAUUCUGAGAAACCCGCTT; sense: sugars from the 5' end r21 d2, backbone not given here; antisense: sugars from the 5' end r20 d2, backbone not given here)
[1]; mouse, in vivo
  DNA form in the nucleus: mainly found as euchromatin
  intracellular vesicles incl. lamellar bodies, TEM: not observed
[1]; vs si-NT-TTs
  sizes of nuclei: almost twice
A549 cells xenograft; 350 nM
  decrease in tumor size at the end point: 50%
  decrease in tumor weight: 40%
A549 cells xenograft; 700 nM
  decrease in tumor size at the end point: 85%
  decrease in tumor weight: 75%
A549 cells xenograft; IHC staining or q-PCR
  decrease in Ki-67 expression levels in tumors: ~80%
A549 cells xenograft; mouse, in vivo
  anti-SMAC/Diablo IHC staining of tumor sections: very weak
[2]; mouse, in vivo
  SMAC/Diablo by immunofluorescence in tumors: no SMAC/Diablo was detected
  expression of AT1 marker podoplanin: higher expression levels
  organization of CD31-positive cells: organized in a manner resembling lung alveoli
  staining for α-SMA: significantly reduced
  stromal structures, H&E: massive fibrotic structures, resembling scar tissue
  tumor cell organization, H&E: organized in glandular-like clusters, surrounded by a chain of cells
  vascular formations in stromal structures: barely noticeable
[2]; vs si-NT-TTs
  staining of SP-C: No significant differences
  staining with Sirius red and of vimentin: appeared to be similar
